Measured values as given in patent US20210015834A1, “NK-1 ANTAGONISTS FOR USE IN THE TREATMENT OF OCULAR PAIN” (priority 2018, published 2021).

How the values were obtained:
mouse cornea nociception = test: Measurement of cornea sensitivity, eye-wiping test (NaCl 5M); assay type: in vivo, mice; details: for MPE increase, overall: three experiments; for MPE (maximal possible effect): one 10 μl drop
Excerpt: 8 week-old C57BL6/N (Charles-River, Italy) and B6.Cg-Tac1^tm1Bbm/J (SP-KO mouse, Jackson) male mice were used in all experiments. Carbon dioxide inhalation and subsequent cervical dislocation were applied to euthanize the animals. All experimental protocols were approved by the Animal Care and Use Committee of the IRCCS San Raffaele Scientific Institute, in accordance with the ARVO Statement for the Use of Animals in Ophthalmic and Vision Research.
Mice 8-week-old C57BL6/N (Charles-River, Italy) and B6.Cg-Tac1^tm1Bbm/J (Jackson) corneal sensitivity was measured with the eye wiping test^36. Briefly, animals were placed individually in an empty cage for 5 min to get acclimatized; one drop (10 μl) of NaCl 5M was put into the right eye of the animal and eye wipings with the ipsilateral forepaw were counted for 30 s. Subsequently, a drop (10 μl) of Fosaprepitant (2, 10 and 50 mg/mL, powder was weighted and dissolved in PBS to reach the desired final concentration, Ivemend, Merck Sharp & Dohme B.V), PBS, Diclofenac (0.1%, Dicloftil, Farmingea) or Oxybuprocaine chloride (4 mg/ml, Novesina, Laboratoire Thea) was put on the same eye and left for 3 min. […] Three experiments were performed, each with 8 mice per group. In a sub-group of experiments, cornea sensitivity was tested 24 hours after 10 days of topical treatment (10 μl) with 2 mg/mL Fosaprepitant (6 times/day).
Anti-nociceptive effect was calculated as maximal possible effect (% MPE or MPE %) for each mouse according to the following formula:
% MPE=100×(post-treatment wipe count−pre-treatment wipe count)/(0−pre-treatment wipe count).
Unpaired t-test was used to evaluate the differences in nociception after different treatments. A p value <0.05 was considered to be statistically significant. The statistical software GraphPad Prism 5.0 (GraphPad Software, La Jolla, Calif.) was used for all analyses. All data were expressed as mean±standard error of the means (SEM). All methods were performed in accordance with the relevant guidelines and regulations.

ocular pain = test: Subjective ocular pain score (0-10) in a treated patient; assay type: in vivo, human
Excerpt: (§1) One patient affected with Stage II (Foster) ocular cicatritial pemphigoid and intractable ocular pain was recruited on a compassionate trial of Fosaprepitant, upon administration and acceptance of informed consent, after consultation with the San Raffaele Hospital Ethics Committee. The patient reported the pain to be located on the ocular surface of both eyes and rated it 9/10 on the right eye and 2/10 on the left eye. Visual acuity was light perception in both eyes and the left eye presented a descemetocele. In the right eye the cornea presented diffuse punctate keratopathy, and conjunctival scarring. All the medications in use at time of enrollment were maintained. These included topical medications: tacrolimus 0.02% 3 times a day, dexamethasone phosphate twice a day, Timolol-brinzolamide drops twice a day, lubricants 6 times a day. In addition, the patient was taking systemic prednisone (25 mg); other systemic immunosuppressants had been previously tried to control the disease but had been suspended due to inefficacy or intolerance. In an unsuccessful attempt to control ocular pain, the prednisone dosage was raised up to 25 mg per day and the patient had been started 3 months before with opioid analgesic Tapentadol 50 mg bid and paracetamol 1000 mg tid. Only the right eye was treated. In this study, the patient received treatment with ocular Fosaprepitant 10 mg/mL (50 μl) 6 times/day for 30 days.
(§2) Different filament lengths were tried (starting from 60 mm, 5 mm intervals) until response, and noted. In order to quantify subjective ocular pain, the treated patient was asked to rate the pain felt in the treated eye on a scale from 0 (no pain) to 10 (worst possible pain) before and after the treatment^38.

corneal sensitivity = test: Corneal sensitivity, Cochet-Bonnet aesthesiometer, in a treated patient; assay type: in vivo, human
Excerpt: as §1
To test corneal sensitivity, a Cochet-Bonnet aesthesiometer (60 mm in length, 0.12 mm diameter) was used. The head of the subject was placed on the chinrest of the slit lamp, and the Cochet-Bonnet filament was neared the volunteer's eye with a perpendicular angle.
as §2

ocular surface [1] = test: Gross signs of ocular surface toxicity in the human subject; assay type: in vivo; details: topical Fosaprepitant 10 mg/ml 6 times a day for 30 days
Excerpt: as §1, with “In this study, the patient received treatment with ocular Fosaprepitant 10 mg/mL (50 μl) 6 times/day for 30 days.” left out

cornea = details: topical Fosaprepitant 10 mg/ml 6 times a day; cited from earlier work
ocular surface [2] = test: Gross signs of ocular surface toxicity in mice; details: topical Fosaprepitant
[3] = Fosaprepitant 10 mg/ml 6 times a day, after one month of treatment

Compound: CCCCOc1cc(C(=O)OCCN(CC)CC)ccc1N [Oxybuprocaine]
- % MPE (mouse cornea nociception; Oxybuprocaine 4 mg/ml topical, p<0.0001 vs Fosaprepitant 10 mg/ml): 80.59%
- MPE difference, Oxybuprocaine higher than Fosaprepitant (mouse cornea nociception; Oxybuprocaine 4 mg/ml vs Fosaprepitant 50 mg/ml, p<0.0001): 35.89 MPE points
- MPE increase, overall (mouse cornea nociception; Oxybuprocaine 4 mg/ml vs PBS, p<0.0001): 56.92 points
- corneal pain measured as eye wiping counts vs placebo and Fosaprepitant (mouse cornea nociception; Oxybuprocaine 4 mg/ml, topical): significantly reduces corneal pain
- MPE (maximal possible effect) (mouse cornea nociception; oxybuprocaine chloride 4 mg/ml, first experiment, SD 9.7): 80.8%
- MPE (maximal possible effect) (mouse cornea nociception; oxybuprocaine chloride 4 mg/ml, second experiment, SD 13.9): 84.1%
- MPE (maximal possible effect) (mouse cornea nociception; oxybuprocaine chloride 4 mg/ml, third experiment, SD 10.9): 78.2%

Compound: C[C@@H](O[C@H]1OCCN(Cc2nc(O)n(P(=O)(O)O)n2)[C@H]1c1ccc(F)cc1)c1cc(C(F)(F)F)cc(C(F)(F)F)c1 [Fosaprepitant, [3-{[(2R,3S)-2-[(1R)-1-[3,5-bis(trifluoromethyl)phenyl]ethoxy]-3-(4-fluorophenyl)morpholin-4-yl]methyl}-5-oxo-2H-1,2,4-triazol-1-yl]phosphonic acid]
- change of cornea sensitivity (mouse cornea nociception; Fosaprepitant 2 mg/ml 6 times a day for 10 days, compared to 10 days PBS instillation, p=0.0195): −31.4%
- reduction of cornea sensitivity (mouse cornea nociception; Fosaprepitant 2 mg/ml one time, topical): did not significantly reduce cornea sensitivity
- change of cornea sensitivity (mouse cornea nociception; Fosaprepitant 2 mg/ml, single shot vs 10 days treatment, p=0.0174): −27.1%
- reduction of nociception (mouse cornea nociception; Fosaprepitant 10 mg/ml single administration vs PBS, p=0.029): −28.1%
- maximum possible analgesic effect (MPE) (mouse cornea nociception; Fosaprepitant 10 mg/ml topical, p=0.0006 vs PBS): 44.52%
- corneal pain measured as eye wiping counts vs placebo (mouse cornea nociception; Fosaprepitant 50 mg/ml administered once, 30 minutes after administration): significantly reduces corneal pain
- maximum possible analgesic effect (MPE) (mouse cornea nociception; Fosaprepitant 50 mg/ml topical, p=0.0001 vs PBS): 52.62%
- MPE increase, overall (mouse cornea nociception; Fosaprepitant 50 mg/ml vs PBS, p<0.0001): 21.03 points
- MPE (maximal possible effect) (mouse cornea nociception; Fosaprepitant 50 mg/ml, first experiment, SD 14.6): 48.4%
- MPE (maximal possible effect) (mouse cornea nociception; Fosaprepitant 50 mg/ml, second experiment, SD 24.9): 43.2%
- MPE (maximal possible effect) (mouse cornea nociception; Fosaprepitant 50 mg/ml, third experiment, SD 16.6): 44.2%
- reduction of nociception (mouse cornea nociception; Fosaprepitant single administration, 10 mg/ml vs 2 mg/ml, p=0.0005): −23.1%
- lower effective concentration in reducing corneal pain (mouse cornea nociception; single administration): 10 mg/mL
- corneal sensitivity reduction, WT mice before vs after treatment (mouse cornea nociception; single administration of Fosaprepitant 10 mg/ml, p<0.0001): −47.9
- corneal pain score (ocular pain; Fosaprepitant 10 mg/ml 6 times a day, 2 hours after the first instillation, baseline 9/10): 0/10
- pain score (ocular pain; [3]): 0/10
- pain score (ocular pain; follow-up visit one month after study exit, not constant): 1/10
- Cochet Bonnet aesthesiometry (corneal sensitivity; Fosaprepitant 10 mg/ml 6 times a day, 2 hours after the first instillation, baseline 60 mm): 50 mm
- Cochet Bonnet aesthesiometry, reduction (corneal sensitivity; [3]): 50%
- corneal sensitivity (corneal sensitivity; follow-up visit one month after study exit): 60 mm
- signs of ocular surface toxicity (ocular surface [1]): no gross signs of ocular surface toxicity
- signs of toxicity to the cornea (cornea): did not show obvious signs of toxicity to the cornea
- signs of ocular surface toxicity (ocular surface [2]): no gross signs of ocular surface toxicity

Compound: O=C(O)Cc1ccccc1Nc1c(Cl)cccc1Cl [Diclofenac]
- % MPE (mouse cornea nociception; Diclofenac 0.1% topical, p=0.0029 vs Fosaprepitant 10 mg/ml): 69.66%
